Patent US20210284638A1 (Saint Louis University, priority 2018, published 2021)

Experiments:
[1] = target: T1, Recombinant human integrin αVβ3 (Homo sapiens, UniProt P05106+P06756); assay: Solid Phase Receptor Assay for αVβ3 function; assay type: binding; conditions: plate-bound human vitronectin; read-out: αVβ3 SPRA IC50
T1 construct: purchased R&D Systems 3050-AV
Method: C. […] Wells were washed 3 times with 150 μL TBS+ and then 150 μL of blocking buffer (TBS+ with 1% bovine serum albumin, Sigma A7906) was added. The plate was incubated for 1 hr at 37° C. and then washed 3× with TBS+ buffer. […] Compounds were diluted to 20 μM and then 1 μL was added to each well of the plate according to a standard template with each sample repeated in triplicate. After incubation for two hours at room temperature, the plate was washed 3× with 150 μL of TBS+ buffer. To each well, 50 μL of biotinylated anti-αV antibody (R&D Systems, BAF1219) at 0.5 μg/mL in TBS+/0.1% BSA were added and the plate covered and incubated for 1 hr at room temperature. After washing the plate 3× with 150 μL of TBS+ buffer, 50 μL of streptavidin-conjugated horseradish peroxidase (R&D Systems, DY998) diluted in TBS+ blocking buffer were added to the wells and the plate incubated for 20 min at room temperature. The plate was washed 3× with TBS+ buffer followed by 50 μL of TMB substrate (Sigma, T4444) added to each well in the dark and the plate was incubated for 25 min at room temperature. 25 μL of 1.0 M phosphoric acid was added as a stop solution and the plates were read at 450 nm using a Spectramax plate reader.

[2] = target: T2, Recombinant human integrin αvβ1 (Homo sapiens, UniProt P05556+P06756); assay: Solid Phase Receptor Assay (SPRA) for αVβ1 function; assay type: binding; conditions: plate-bound human fibronectin
T2 construct: purchased R&D Systems 6579-AV
Method: B. Solid Phase Receptor Assay (SPRA) for αVβ1 Function
Wells were washed 3 times with 150 μL TBS+ and then 150 μL of blocking buffer (TBS+ with 1% bovine serum albumin, Sigma A7906) was added. The plate was incubated for 1 hr at 37° C. and then washed 3× with TBS+ buffer. […] Compounds were diluted to 20 μM and 1 μL was added to each well of the plate according to a standard template with each sample repeated in triplicate. After incubation for two hours at room temperature, the plate was washed 3× with 150 μL of TBS+ buffer. To each well, 50 μL of biotinylated anti-αV antibody (R&D Systems, BAF1219) at 1 μg/mL in TBS+/0.1% BSA were added and the plate covered and incubated for 1 hr at room temperature. After washing the plate 3× with 150 μL of TBS+ buffer, 50 μL of streptavidin-conjugated horseradish peroxidase (R&D Systems, DY998) diluted in TBS+ blocking buffer were added to the wells and the plate incubated for 20 min at room temperature. The plate was washed 3× with TBS+ buffer followed by 50 μL of TMB substrate (Sigma, T4444) added to each well in the dark and the plate incubated for 25 min at room temperature. 25 μL of 1.0 M phosphoric acid was added as a stop solution and the plates were read at 450 nm using a Spectramax plate reader.

T2 sequence (P06756 31-992 limits assumed): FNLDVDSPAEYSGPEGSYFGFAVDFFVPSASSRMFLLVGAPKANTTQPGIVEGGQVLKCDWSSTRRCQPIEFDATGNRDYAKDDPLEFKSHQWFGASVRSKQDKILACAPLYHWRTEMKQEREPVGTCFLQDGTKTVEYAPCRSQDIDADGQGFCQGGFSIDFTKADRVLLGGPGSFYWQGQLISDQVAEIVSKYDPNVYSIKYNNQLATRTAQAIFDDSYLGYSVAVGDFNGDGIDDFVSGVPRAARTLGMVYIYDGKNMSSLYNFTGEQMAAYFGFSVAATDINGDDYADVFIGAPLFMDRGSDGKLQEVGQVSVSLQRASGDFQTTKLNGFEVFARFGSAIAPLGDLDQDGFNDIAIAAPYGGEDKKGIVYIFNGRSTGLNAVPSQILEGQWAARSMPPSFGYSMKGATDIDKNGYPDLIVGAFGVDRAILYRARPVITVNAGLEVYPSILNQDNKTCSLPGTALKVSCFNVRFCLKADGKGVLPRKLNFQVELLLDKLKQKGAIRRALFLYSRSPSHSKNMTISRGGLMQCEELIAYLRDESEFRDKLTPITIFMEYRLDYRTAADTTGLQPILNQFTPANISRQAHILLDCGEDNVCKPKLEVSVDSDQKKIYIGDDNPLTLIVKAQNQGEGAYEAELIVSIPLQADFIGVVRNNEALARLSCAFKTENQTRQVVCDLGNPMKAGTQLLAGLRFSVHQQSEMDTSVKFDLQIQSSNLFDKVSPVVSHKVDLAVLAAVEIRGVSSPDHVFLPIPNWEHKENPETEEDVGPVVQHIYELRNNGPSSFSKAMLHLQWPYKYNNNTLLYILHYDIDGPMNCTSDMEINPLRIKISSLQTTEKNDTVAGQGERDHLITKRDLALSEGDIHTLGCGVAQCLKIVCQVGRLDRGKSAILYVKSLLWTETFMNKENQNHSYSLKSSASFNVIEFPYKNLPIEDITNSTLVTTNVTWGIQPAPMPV
T2 sequence (P05556 21-728 limits assumed): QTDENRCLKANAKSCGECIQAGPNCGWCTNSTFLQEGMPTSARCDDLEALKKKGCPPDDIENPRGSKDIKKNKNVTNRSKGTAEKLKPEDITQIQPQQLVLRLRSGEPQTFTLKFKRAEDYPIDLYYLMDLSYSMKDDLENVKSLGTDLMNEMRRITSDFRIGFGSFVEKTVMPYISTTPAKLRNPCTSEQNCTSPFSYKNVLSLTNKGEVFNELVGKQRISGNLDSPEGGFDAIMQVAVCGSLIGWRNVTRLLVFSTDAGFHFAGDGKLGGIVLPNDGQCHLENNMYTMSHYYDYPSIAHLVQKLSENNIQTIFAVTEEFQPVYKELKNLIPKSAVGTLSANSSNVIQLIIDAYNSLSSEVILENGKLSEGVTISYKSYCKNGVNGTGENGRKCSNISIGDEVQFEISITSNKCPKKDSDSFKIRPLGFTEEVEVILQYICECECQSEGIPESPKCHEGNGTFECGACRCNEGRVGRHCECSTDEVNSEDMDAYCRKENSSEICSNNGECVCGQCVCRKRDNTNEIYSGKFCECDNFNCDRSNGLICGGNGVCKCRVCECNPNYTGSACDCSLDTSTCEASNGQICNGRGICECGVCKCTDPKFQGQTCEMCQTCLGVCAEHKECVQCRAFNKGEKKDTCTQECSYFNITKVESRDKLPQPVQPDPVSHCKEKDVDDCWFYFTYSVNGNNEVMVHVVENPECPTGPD
T1 sequence (P06756 31-992 limits assumed): as the sequence (P06756 31-992 limits assumed) above
T1 sequence (P05106 27-718 limits assumed): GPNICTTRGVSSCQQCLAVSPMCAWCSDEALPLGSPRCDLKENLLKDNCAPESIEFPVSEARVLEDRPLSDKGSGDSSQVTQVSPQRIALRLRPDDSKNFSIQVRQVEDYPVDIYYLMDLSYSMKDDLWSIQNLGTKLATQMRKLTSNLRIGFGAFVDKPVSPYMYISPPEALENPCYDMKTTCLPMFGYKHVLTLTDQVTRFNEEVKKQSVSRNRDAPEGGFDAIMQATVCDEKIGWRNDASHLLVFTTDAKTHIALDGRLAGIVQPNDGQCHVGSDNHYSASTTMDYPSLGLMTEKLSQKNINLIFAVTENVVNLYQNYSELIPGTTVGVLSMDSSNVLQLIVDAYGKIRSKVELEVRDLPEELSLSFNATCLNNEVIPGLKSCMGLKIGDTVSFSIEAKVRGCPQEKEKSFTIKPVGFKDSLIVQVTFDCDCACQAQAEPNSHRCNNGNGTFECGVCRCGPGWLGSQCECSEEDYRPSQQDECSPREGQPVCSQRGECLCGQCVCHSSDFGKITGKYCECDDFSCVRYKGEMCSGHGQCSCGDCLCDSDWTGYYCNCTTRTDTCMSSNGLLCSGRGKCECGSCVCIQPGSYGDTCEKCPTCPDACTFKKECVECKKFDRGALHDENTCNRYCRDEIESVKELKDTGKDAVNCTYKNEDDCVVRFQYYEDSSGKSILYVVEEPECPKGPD

Work on O=C(O)CC(Cc1cc(OCCc2ccc3c(n2)NCCC3)[nH]n1)c1cccc(F)c1 (stereo not shown) [CC2, reference compound] yielded an IC50 [1] of 3.1 nM and an IC50 [2] of 19 nM.
With COCC1(c2cc(C(CC(=O)O)Cc3cc(OCCc4ccc5c(n4)NCCC5)n(C)n3)cc(C(C)(C)C)c2)CCOCC1 (stereo not shown) [Example 1, 3-[3-tert-butyl-5-[4-(methoxymethyl)tetrahydropyran-4-yl]phenyl]-4-[1-methyl-5-[2-(5,6,7,8-tetrahydro-1,8-naphthyridin-2-yl)ethoxy]pyrazol-3-yl]butanoic acid] the IC50 [1] was 48 nM and the IC50 [2] was 6 nM.
In the case of CC(C)c1cc(C#N)cc(C(CC(=O)O)Cc2cc(OCCc3ccc4c(n3)NCCC4)n(C)n2)c1 (stereo not shown) [Example 2, 3-(3-cyano-5-isopropylphenyl)-4-(1-methyl-5-(2-(5,6,7,8-tetrahydro-1,8-naphthyridin-2-yl)ethoxy)-1H-pyrazol-3-yl)butanoic acid trifluoroacetic acid], the IC50 [1] is reported as 6 nM and the IC50 [2] is reported as 9 nM.
Work on Cn1nc(CC(CC(=O)O)c2cc(Br)cc(S(F)(F)(F)(F)F)c2)cc1OCCc1ccc2c(n1)NCCC2 (stereo not shown) [Example 3, 3-[3-bromo-5-(pentafluoro-sulfanyl)phenyl]-4-[1-methyl-5-[2-(5,6,7,8-tetrahydro-1,8-naphthyridin-2-yl)ethoxy]pyrazol-3-yl]butanoic acid] yielded an IC50 [1] of 8 nM and an IC50 [2] of 12 nM.
Work on CC(C)c1cc(C(C)C)cc(C(CC(=O)O)Cc2cc(OCCc3ccc4c(n3)NCCC4)n(C)n2)c1 (stereo not shown) [Example 4, 3-(3,5-diisopropylphenyl)-4-[1-methyl-5-[2-(5,6,7,8-tetrahydro-1,8-naphthyridin-2-yl)ethoxy]pyrazol-3-yl]butanoic acid] yielded an IC50 [1] of 15 nM and an IC50 [2] of 7 nM.
Cn1nc(CC(CC(=O)O)c2cc(C(C)(C)C)cc(C(C)(C)C(F)(F)F)c2)cc1OCCc1ccc2c(n1)NCCC2 (stereo not shown) [Example 5, 3-(3-(tert-butyl)-5-(1,1,1-trifluoro-2-methylpropan-2-yl)phenyl)-4-(1-methyl-5-(2-(5,6,7,8-tetrahydro-1,8-naphthyridin-2-yl)ethoxy)-1H-pyrazol-3-yl) butanoic acid] gave an IC50 [1] of 140 nM and an IC50 [2] of 4 nM.
With Cn1nc(CC(CC(=O)O)c2cc(C(C)(C)C)cc(C3(C(F)F)CC3)c2)cc1OCCc1ccc2c(n1)NCCC2 (stereo not shown) [Example 6, 3-(3-(tert-butyl)-5-(1-(difluoromethyl)cyclopropyl)phenyl)-4-(1-methyl-5-(2-(5,6,7,8-tetrahydro-1,8-naphthyridin-2-yl)ethoxy)-1H-pyrazol-3-yl)butanoic acid] the IC50 [1] was 120 nM and the IC50 [2] was 5 nM.
With Cn1nc(CC(CC(=O)O)c2cc(C(C)(C)C)cc(C(C)(C)CO)c2)cc1OCCc1ccc2c(n1)NCCC2 (stereo not shown) [Example 7, 3-[3-tert-butyl-5-(2-hydroxy-1,1-dimethyl-ethyl)phenyl]-4-[1-methyl-5-[2-(5,6,7,8-tetrahydro-1,8-naphthyridin-2-yl)ethoxy]pyrazol-3-yl]butanoic acid] the IC50 [1] was 17 nM and the IC50 [2] was 3 nM.
Cn1nc(CC(CC(=O)O)c2cc(Cl)cc(C(C)(C)C#N)c2)cc1OCCc1ccc2c(n1)NCCC2 (stereo not shown) [Example 8, 3-(3-chloro-5-(2-cyanopropan-2-yl)phenyl)-4-(1-methyl-5-(2-(5,6,7,8-tetrahydro-1,8-naphthyridin-2-yl)ethoxy)-1H-pyrazol-3-yl)butanoic acid] was tested, and the IC50 [1] was 3 nM and the IC50 [2] was 2 nM.
Cn1nc(CC(CC(=O)O)c2cc(C(C)(C)C)cc(C(C)(C)C#N)c2)cc1OCCc1ccc2c(n1)NCCC2 (stereo not shown) [Example 9, 3-[3-tert-butyl-5-(1-cyano-1-methyl-ethyl)phenyl]-4-[1-methyl-5-[2-(5,6,7,8-tetrahydro-1,8-naphthyridin-2-yl)ethoxy]pyrazol-3-yl]butanoic acid] was tested, and the IC50 [1] was 38 nM and the IC50 [2] was 2 nM.
For COc1c(C(C)(C)C)cc(C(CC(=O)O)Cc2cc(OCCc3ccc4c(n3)NCCC4)n(C)n2)cc1C(C)(C)C (stereo not shown) [Example 10, 3-(3,5-di-tert-butyl-4-methoxyphenyl)-4-(1-methyl-5-(2-(5,6,7,8-tetrahydro-1,8-naphthyridin-2-yl)ethoxy)-1H-pyrazol-3-yl)butanoic acid], the IC50 [1] was 410 nM and the IC50 [2] was 4 nM.
For COc1c(C(CC(=O)O)Cc2cc(OCCc3ccc4c(n3)NCCC4)n(C)n2)cc(C(C)(C)C)cc1C(C)(C)C (stereo not shown) [Example 11, 3-(3,5-di-tert-butyl-2-methoxyphenyl)-4-(1-methyl-5-(2-(5,6,7,8-tetrahydro-1,8-naphthyridin-2-yl)ethoxy)-1H-pyrazol-3-yl)butanoic acid], the IC50 [1] was 13000 nM and the IC50 [2] was 800 nM.
Work on COc1c(Br)cc(C(C)(C)C)cc1C(CC(=O)O)Cc1cc(OCCc2ccc3c(n2)NCCC3)n(C)n1 (stereo not shown) [Example 12, 3-(3-bromo-5-(tert-butyl)-2-methoxyphenyl)-4-(1-methyl-5-(2-(5,6,7,8-tetrahydro-1,8-naphthyridin-2-yl)ethoxy)-1H-pyrazol-3-yl)butanoic acid] yielded an IC50 [1] of 90 nM and an IC50 [2] of 13 nM.
With COc1cc(C(CC(=O)O)Cc2cc(OCCc3ccc4c(n3)NCCC4)n(C)n2)cc(C23CC4CC(CC(C4)C2)C3)c1OCc1ccccc1 (stereo not shown) [Example 13, 3-[3-(1-adamantyl)-4-benzyloxy-5-methoxy-phenyl]-4-[1-methyl-5-[2-(5,6,7,8-tetrahydro-1,8-naphthyridin-2-yl)ethoxy]pyrazol-3-yl]butanoic acid] the IC50 [1] was 31 nM and the IC50 [2] was 21 nM.
COc1cc(C(CC(=O)O)Cc2cc(OCCc3ccc4c(n3)NCCC4)n(C)n2)cc(C23CC4CC(CC(C4)C2)C3)c1OC (stereo not shown) [Example 14, 3-[3-(1-adamantyl)-4,5-dimethoxy-phenyl]-4-[1-methyl-5-[2-(5,6,7,8-tetrahydro-1,8-naphthyridin-2-yl)ethoxy]pyrazol-3-yl]butanoic acid] showed an IC50 [1] of 9 nM and an IC50 [2] of 9 nM.
Work on Cn1nc(CC(CC(=O)O)c2cc3c(c(C(C)(C)C)c2)OCO3)cc1OCCc1ccc2c(n1)NCCC2 (stereo not shown) [Example 15] yielded an IC50 [1] of 9 nM and an IC50 [2] of 3 nM.
With Cn1nc(CC(CC(=O)O)c2cc3c(c(C(C)(C)C)c2)OCCO3)cc1OCCc1ccc2c(n1)NCCC2 (stereo not shown) [Example 16, 3-(8-(tert-butyl)-2,3-dihydrobenzo[b][1,4]dioxin-6-yl)-4-(1-methyl −5-(2-(5,6,7,8-tetrahydro-1,8-naphthyridin-2-yl)ethoxy)-1H-pyrazol-3-yl) butanoic acid] the IC50 [1] was 7 nM and the IC50 [2] was 5 nM.
With Cn1nc(CC(CC(=O)O)c2cc(C(C)(C)C)ccc2Br)cc1OCCc1ccc2c(n1)NCCC2 (stereo not shown) [Example 17, 3-(2-bromo-5-(tert-butyl)phenyl)-4-(1-methyl-5-(2-(5,6,7,8-tetrahydro-1,8-naphthyridin-2-yl)ethoxy)-1H-pyrazol-3-yl)butanoic acid] the IC50 [1] was 930 nM and the IC50 [2] was 14 nM.
Cn1nc(CC(CC(=O)O)c2cc(C(C)(C)C)ccc2C#N)cc1OCCc1ccc2c(n1)NCCC2 (stereo not shown) [Example 18, 3-(5-(tert-butyl)-2-cyanophenyl)-4-(1-methyl-5-(2-(5,6,7,8-tetrahydro-1,8-naphthyridin-2-yl)ethoxy)-1H-pyrazol-3-yl)butanoic acid] showed an IC50 [1] of 56 nM and an IC50 [2] of 5 nM.
Compound Cn1nc(CC(CC(=O)O)c2cc(C(C)(C)C)ccc2F)cc1OCCc1ccc2c(n1)NCCC2 (stereo not shown) [Example 19, 3-(5-(tert-butyl)-2-fluorophenyl)-4-(1-methyl-5-(2-(5,6,7,8-tetrahydro-1,8-naphthyridin-2-yl)ethoxy)-1H-pyrazol-3-yl)butanoic acid] has an IC50 [1] of 6 nM and an IC50 [2] of 7 nM.
